Test results published in article PMC9995911, “Lipid environment determines the drug-stimulated ATPase activity of P-glycoprotein” (Frontiers in Molecular Biosciences, 2023).

How the values were obtained:
[1] = molecular target: T1, Pgp (Mus musculus, UniProt P21447); experiment: Thermostability of purified Pgp in detergent solution (CPM dye fluorescence on heating); details: Pgp purified in 0.05% DDM containing 0.01% CHS (DDM/CHS); Pgp in DDM alone ~40 °C
T1 construct: made in house; host or cells: Pichia pastoris
Description: Figure S1: CHS increases the thermostability of purified Pgp in DDM detergent solution.
Pgp was purified from microsomal membranes as detailed in Methods in either 0.05% DDM or 0.05% DDM containing 0.01% CHS (DDM/CHS). Samples were incubated with 2 µM of the cysteine-reactive dye 7-Diethylamino-3-(4'-maleimidylphenyl)-4-methylcoumarin (CPM), and the increase in fluorescence upon heating the samples with a temperature ramp of 1 °C/min was monitored with excitation/ emission wavelengths of 384/470 nm. Increase in fluorescence is due to protein unfolding and exposure of reactive cysteines in Pgp. The melting temperature Tm was ~40 °C for Pgp in DDM solution, similar to that reported for Pgp by other methods (Yang et al., […]
2017). […] Representatives of three independent experiments are shown.
(1 picture or pasted object on this page, not shown here)

[2] = molecular target: T2, Mouse mdr1a Pgp (Mus musculus, UniProt P21447); experiment: Verapamil-stimulated ATPase activity of purified Pgp in DDM detergent activated with lipids (detergent-lipid micelles); format: biochemical; details: ATPase in the absence of verapamil; Pgp in DDM activated with 1% of the named lipid (Table 2)
T2 construct: made in house; host or cells: Pichia pastoris
Description: All purification buffers contained 50 mM Tris pH 8, 10% glycerol, and 500 mM NaCl (Buffer A). Detergent concentrations were reduced to 0.05% DDM during chromatography. Pgp was eluted from the Strep-Tactin superflow resin (Qiagen, Valencia, CA) in the presence of 1 mM DTT, 1 mM TCEP by competition with 4 mM desthiobiotin.

T1 sequence (P21447 whole entry): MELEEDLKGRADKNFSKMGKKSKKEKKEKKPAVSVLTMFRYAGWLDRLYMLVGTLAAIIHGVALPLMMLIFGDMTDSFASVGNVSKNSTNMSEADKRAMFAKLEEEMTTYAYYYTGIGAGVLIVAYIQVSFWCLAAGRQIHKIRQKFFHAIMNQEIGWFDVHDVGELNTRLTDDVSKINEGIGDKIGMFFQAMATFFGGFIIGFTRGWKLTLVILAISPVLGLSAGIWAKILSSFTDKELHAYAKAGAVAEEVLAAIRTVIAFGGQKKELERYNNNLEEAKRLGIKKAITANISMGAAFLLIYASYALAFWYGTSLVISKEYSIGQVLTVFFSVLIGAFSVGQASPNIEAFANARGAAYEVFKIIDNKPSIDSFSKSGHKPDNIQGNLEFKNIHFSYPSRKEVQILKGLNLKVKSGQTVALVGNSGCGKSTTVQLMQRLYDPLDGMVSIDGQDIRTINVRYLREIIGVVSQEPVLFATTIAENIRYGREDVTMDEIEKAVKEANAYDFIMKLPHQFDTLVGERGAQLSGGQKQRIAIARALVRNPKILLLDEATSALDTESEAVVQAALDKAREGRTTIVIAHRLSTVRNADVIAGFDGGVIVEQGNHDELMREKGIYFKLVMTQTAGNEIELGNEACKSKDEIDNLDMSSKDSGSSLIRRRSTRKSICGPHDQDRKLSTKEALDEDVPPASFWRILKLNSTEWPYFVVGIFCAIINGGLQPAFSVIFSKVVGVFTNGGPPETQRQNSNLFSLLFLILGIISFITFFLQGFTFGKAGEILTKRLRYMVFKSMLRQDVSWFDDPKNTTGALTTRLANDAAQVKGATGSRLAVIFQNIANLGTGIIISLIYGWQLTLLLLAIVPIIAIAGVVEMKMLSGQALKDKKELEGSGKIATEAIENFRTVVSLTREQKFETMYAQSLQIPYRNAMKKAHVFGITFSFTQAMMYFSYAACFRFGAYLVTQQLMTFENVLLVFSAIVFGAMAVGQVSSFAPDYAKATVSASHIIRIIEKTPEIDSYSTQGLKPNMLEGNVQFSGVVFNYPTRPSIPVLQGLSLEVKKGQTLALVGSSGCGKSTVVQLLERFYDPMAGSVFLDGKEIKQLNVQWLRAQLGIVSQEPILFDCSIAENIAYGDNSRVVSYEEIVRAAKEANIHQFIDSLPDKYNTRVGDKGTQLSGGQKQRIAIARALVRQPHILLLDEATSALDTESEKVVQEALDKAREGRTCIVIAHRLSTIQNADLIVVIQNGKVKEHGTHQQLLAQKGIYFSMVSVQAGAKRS
T2 sequence (P21447 whole entry): as above

| Basal activity [2] [µmol/min/mg] | SMILES | melting temperature Tm of Pgp [1] |
| --- | --- | --- |
| – | CC(C)CCC[C@@H](C)[C@H]1CC[C@H]2[C@@H]3CC=C4C[C@@H](OC(=O)CCC(=O)O)CC[C@]4(C)[C@H]3CC[C@]12C [CHS, cholesteryl hemisuccinate] | 52 ºC |
| 0.05 | CCCCCCCC/C=C\CCCCCCCC(=O)O[C@H](COC(=O)CCCCCCCCCCCCCCC)COP(=O)([O-])OCC[N+](C)(C)C [POPC only, 1-palmitoyl-2-oleoyl-sn-glycero-3-phosphocholine] | – |
